Experimental data from patent publication US20250034116A1, “1,4-DIHETEROCYCLIC SUBSTITUTED AROMATIC RING OR AROMATIC HETEROCYCLIC COMPOUND AND USE THEREOF” (BeBetter Med Inc., priority 2022, published 2025).

What was measured:
[1] = tested on: CYP enzymes in human liver microsomes (HLM); assay: Inhibition of 20-HETE production in human liver microsomes (HLM); type: biochemical
Procedure: (§1) Experimental principle: The inhibitory activity of 20-HETE production is evaluated by testing the inhibitory effects of the compound on human liver microsomes (HLM), rat liver microsomes (RLM), mouse liver microsomes (MLM), or […] CYP4 subtype enzymes (CYP4F2). This assay employs HLM, RLM, or MLM along with recombinant CYP4F2 (rCYP4F2) and recombinant CYP4A11 (rCYP4A11), which are […] CYP4 subtype enzymes, to detect the effects of the test compound at different concentrations on the metabolic rate of enzyme-specific substrates, to determine the inhibitory effects of the test compound on CYP enzymes in HLM, RLM, or MLM.
(§2) Experimental methods: Dissolve the test compound in DMSO, and subsequently dilute it with an acetonitrile and DMSO mixture (3:1). Add 2 μl of varying concentrations of the test compound and 100 μl of potassium phosphate buffer containing either liver microsomes or recombinant enzymes to a 96-well plate. After mixing well, transfer 30 μl to another well (in duplicate), add 15 μl of 400 μM substrate solution, and mix well again. Preheat at 37° C. for 10 minutes, and then add 15 μl of 6 mM NADPH and incubate at 37° C. for 25 minutes. After 25 minutes, add 160 μl of acetonitrile solution (containing 0.1 μg/ml internal standard) to stop the reaction. Mix well, centrifuge at 3500 g for 15 minutes, and then analyze the supernatant using LC-MS/MS.
(§3) Plot the compound concentration on the x-axis and the inhibition rate on the y-axis to draw the curve. Use GraphPad Prism 5 software to fit the curve and calculate the IC50. The formula is Y=Bottom+(Top−Bottom)/(1+10^((Log IC50−X)×HillSlope)). X represents the logarithmic concentration of the inhibitor, and Y represents the relative enzyme activity at a given inhibitor concentration (relative to the condition without the inhibitor).
(§4) Calculate the inhibition percentages at concentrations of 1000 nM, 500 nM, or 100 nM as well as the half-maximal inhibitory concentration (IC50) of the test compound from the above experiment.

[2] = tested on: CYP enzymes in mouse liver microsomes (MLM); assay: Inhibition of 20-HETE production in mouse liver microsomes (MLM); type: biochemical
Procedure: as §1, §2, §3, §4

[3] = tested on: CYP enzymes in rat liver microsomes (RLM); assay: Inhibition of 20-HETE production in rat liver microsomes (RLM); type: biochemical
Procedure: as §1, §2, §3, §4

[4] = Pharmacokinetic (PK) experiment, oral administration in rats; type: in vivo, Male SD rats; details: 20 mg/kg; for AUC(0-inf) / Cmax / Tmax / half-life / AUC(0-t): male, SD, rat, plasma; for AUC(0-t): read-out: AUC0-24
Procedure: Male SD rats, weighing 180-250 grams, were fasted overnight before testing. The test compound was dissolved in 30% sulfobutylether-β-cyclodextrin and administered orally at a dose of 20 mg/kg. Blood was collected from the tail vein at 15 minutes, 30 minutes, and 1, 2, 4, 6, 8, and 24 hours after administration. Approximately 0.3 ml of blood was collected at each time point, placed in a centrifuge tube containing K2-EDTA, and centrifuged (2000 g for 10 minutes at 4° C.) to take the plasma, which was then stored in an ultra-low temperature freezer at −70° C. or below. A 50 μL plasma sample was mixed with 135 μL of acetonitrile (containing 0.5 μg/mL internal standard) and vortexed for protein precipitation. After centrifugation, the supernatant was taken for LC-MS/MS analysis.

| Structure (SMILES) | HLM (% inh @ 100 nM) [1] | IC50 [1] | RLM (% inh @ 500 nM) [3] | HLM (% inh @ 500 nM) [1] | also measured |
| --- | --- | --- | --- | --- | --- |
| O=C(C1CCCCC1O)N1CCC(c2ccc(-c3cn[nH]c3)cc2F)CC1 (single isomer, unassigned) [Compound 149b, (4-(2-fluoro-4-(1H-pyrazol-4-yl)phenyl)piperidin-1-yl)(2-hydroxycyclohexyl) methanone] | 83.42% | – | – | – | MLM (% inh @ 1000 nM) [2]: 47.54% |
| O=C(N1CCC(c2ccc(-c3cn[nH]c3)cc2F)CC1)C1(O)CCCCC1 [Compound 140, (4-(2-fluoro-4-(1H-pyrazol-4-yl)phenyl)piperidin-1-yl)(1-hydroxycyclohexyl) methanone] | – | 17.6 nM | – | – | IC50 [2]: 1520 nM |
| O=C(C1CCC(O)C1)N1CCC(c2ccc(-c3cn[nH]c3)cc2F)CC1 (single isomer, unassigned) [Compound 145a, (4-(2-fluoro-4-(1H-pyrazol-4-yl)phenyl)piperidin-1-yl)(3-hydroxycyclopentyl) methanone] | 86.67% | – | – | – | MLM (% inh @ 1000 nM) [2]: 60.45% |
| O=C(CCCCCc1ccccc1)NCC1CCN(c2ccc(-c3cn[nH]c3)cc2)CC1 [Compound 113, N-((1-(4-(1H-pyrazol-4-yl)phenyl)piperidin-4-yl)methyl)-6-phenylhexanamide] | – | 20.6 nM | 57.83% | 87.72% | IC50 [3]: 15.5 nM; absorption and blood exposure after oral administration (in words) [4]: well absorbed and exhibit high blood exposure; AUC(0-inf) [4]: 10100 ng·h/mL; Cmax [4]: 2420 ng/mL; Tmax [4]: 1.33 h; half-life [4]: 2.93 h; AUC(0-t) [4]: 10100 ng·h/mL |
| O=C(C1CCN(c2ccc(-c3cn[nH]c3)cc2F)CC1)N1CC2CCCC2C1 (centres unmarked) [Compound 153, (1-(2-fluoro-4-(1H-pyrazol-4-yl)phenyl)piperidin-4-yl)(hexahydrocyclopenta[c]pyrrol-2 (1H)-yl) methanone] | 74.69% | 32.4 nM | – | – | IC50 [3]: 361 nM; absorption and blood exposure after oral administration (in words) [4]: well absorbed and exhibit high blood exposure; AUC(0-inf) [4]: 566000 ng·h/mL; Cmax [4]: 75200 ng/mL; Tmax [4]: 2 h; half-life [4]: 3.26 h; AUC(0-t) [4]: 558000 ng·h/mL |
| O=C(C1CCOC1)N1CCC(c2ccc(-c3cn[nH]c3)cc2F)CC1 (centres unmarked) [Compound 144, (4-(2-fluoro-4-(1H-pyrazol-4-yl)phenyl)piperidin-1-yl)(tetrahydrofuran-3-yl) methanone] | 87.74% | – | – | – | MLM (% inh @ 1000 nM) [2]: 60.66% |
| O=C(N1CCC(c2ccc(-c3cn[nH]c3)cc2F)CC1)N1Cc2ccccc2C1 [Compound 136, (4-(2-fluoro-4-(1H-pyrazol-4-yl)phenyl)piperidin-1-yl)(isoindolin-2-yl) methanone] | 87.34% | 19.4 nM | – | – | IC50 [2]: 664 nM |
| O=C(N1CCCC1)N1CCC(c2ccc(-c3cn[nH]c3)c(F)c2F)CC1 [Compound 71, (4-(2,3-difluoro-4-(1H-pyrazol-4-yl)phenyl)piperidin-1-yl)(pyrrolidin-1-yl) methanone] | – | 19.7 nM | 75.13% | 95.89% | absorption and blood exposure after oral administration (in words) [4]: well absorbed and exhibit high blood exposure; AUC(0-inf) [4]: 58000 ng·h/mL; Cmax [4]: 8730 ng/mL; Tmax [4]: 2 h; half-life [4]: 2.41 h; AUC(0-t) [4]: 57900 ng·h/mL |
| O=C(N1CCC(c2ccc(-c3cn[nH]c3)cc2F)CC1)C1(F)CCCCC1 [Compound 141, (4-(2-fluoro-4-(1H-pyrazol-4-yl)phenyl)piperidin-1-yl)(1-fluorocyclohexyl) methanone] | 88.15% | – | – | – | MLM (% inh @ 1000 nM) [2]: 59.36% |
| O=C(C1CCCC1)N1CCC(c2ccc(-c3cn[nH]c3)c(F)c2F)CC1 [Compound 98, cyclopentyl(4-(2,3-difluoro-4-(1H-pyrazol-4-yl)phenyl)piperidin-1-yl) methanone] | – | 22 nM | – | 96.23% | IC50 [3]: 9.68 nM; absorption and blood exposure after oral administration (in words) [4]: well absorbed and exhibit high blood exposure; AUC(0-inf) [4]: 98600 ng·h/mL; Cmax [4]: 8700 ng/mL; Tmax [4]: 3 h; half-life [4]: 2.38 h; AUC(0-t) [4]: 98400 ng·h/mL |
| O=C(N1CCN(c2ccc(-c3cn[nH]c3)cc2F)CC1)C1(O)CCCCC1 [Compound 132, (4-(2-fluoro-4-(1H-pyrazol-4-yl)phenyl)piperazin-1-yl)(1-hydroxycyclohexyl) methanone] | – | 25.6 nM | – | – | IC50 [2]: 2420 nM |
| O=C(C1CCC(O)C1)N1CCC(c2ccc(-c3cn[nH]c3)cc2F)CC1 (single isomer, unassigned) [Compound 145b, (4-(2-fluoro-4-(1H-pyrazol-4-yl)phenyl)piperidin-1-yl)(3-hydroxycyclopentyl) methanone] | 88.49% | – | – | – | MLM (% inh @ 1000 nM) [2]: 48.10% |
| COC1(C(=O)N2CCC(c3ccc(-c4cn[nH]c4)cc3)CC2)CCCCC1 [Compound 150, (4-(4-(1H-pyrazol-4-yl)phenyl)piperidin-1-yl)(1-methoxycyclohexyl) methanone] | 84.56% | – | – | – | MLM (% inh @ 1000 nM) [2]: 40.18% |
| C=CCCCCCC(=O)NCC1CCN(c2ccc(-c3cn[nH]c3)cc2)CC1 [Compound 115, N-((1-(4-(1H-pyrazol-4-yl)phenyl)piperidin-4-yl)methyl)oct-7-enamide] | – | 20.8 nM | – | 85.21% | IC50 [3]: 26.2 nM |
| O=C(NCc1ccccc1)N1CCN(c2ccc(-c3cn[nH]c3)c(F)c2F)CC1 [Compound 94, N-benzyl-4-(2,3-difluoro-4-(1H-pyrazol-4-yl)phenyl)piperazine-1-carboxamide] | – | – | 73.06% | 92.79% | IC50 [3]: 148 nM |
| O=C1CCCN1CC1CCN(c2ccc(-c3cc[nH]n3)cc2F)CC1 [Compound 76, 1-((1-(2-fluoro-4-(1H-pyrazol-3-yl)phenyl)piperidin-4-yl)methyl)pyrrolidin-2-one] | – | – | 40.73% | 80.70% | – |
| O=C1CCCN1CC1CCN(c2ccc(-c3cn[nH]c3)cc2C(F)(F)F)CC1 [Compound 10, 1-((1-(4-(1H-pyrazol-4-yl)-2-(trifluoromethyl)phenyl)piperidin-4-yl)methyl)pyrrolidin-2-one] | – | 46.1 nM | – | – | IC50 [3]: 542 nM |
| O=C(NC1CCN(c2ccc(-c3cn[nH]c3)cc2)CC1)C1CCCC1 [Compound 69, N-(1-(4-(1H-pyrazol-4-yl)phenyl)piperidin-4-yl)cyclopentanecarboxamide] | – | – | 43.82% | 76.97% | – |
| O=C(CCCCCO)NCC1CCN(c2ccc(-c3cn[nH]c3)cc2)CC1 [Compound 45, N-((1-(4-(1H-pyrazol-4-yl)phenyl)piperidin-4-yl)methyl)-6-hydroxyhexanamide] | – | – | 26.43% | 57.83% | – |
| O=C1CCCN1CC1CCN(c2ccc(-c3cn[nH]c3)nc2)CC1 [Compound 22, 1-((1-(6-(1H-pyrazol-4-yl)pyridin-3-yl)piperidin-4-yl)methyl)pyrrolidin-2-one] | – | – | 34.61% | 53.10% | – |
| CC(=O)NCC1CCN(c2ccc(-c3cn[nH]c3)cc2)CC1 [Compound 43, N-((1-(4-(1H-pyrazol-4-yl)phenyl)piperidin-4-yl)methyl) acetamide] | – | – | 31.42% | 61.30% | – |
| O=C(Cc1ccccc1)N1CCC(c2ccc(-c3cn[nH]c3)c(F)c2F)CC1 [Compound 111, 1-(4-(2,3-difluoro-4-(1H-pyrazol-4-yl)phenyl)piperidin-1-yl)-2-phenylethan-1-one] | – | – | 84.99% | 82.17% | – |
| O=C(C1CCN(c2ccc(-c3cn[nH]c3)cc2)CC1)N1CC2CCC1C2 (centres unmarked) [Compound 65, (1-(4-(1H-pyrazol-4-yl)phenyl)piperidin-4-yl)(2-azabicyclo[2.2.1]heptane-2-yl) methanone] | – | – | 2.30% | 52.63% | – |
| O=C1CCCCC1C(=O)N1CCC(c2ccc(-c3cn[nH]c3)c(F)c2F)CC1 (centres unmarked) [Compound 109, 2-(4-(2,3-difluoro-4-(1H-pyrazol-4-yl)phenyl)piperidine-1-carbonyl)cyclohexane-1-one] | – | – | 68.22% | 74.67% | – |
